In patent US11104881B2, “Method for highly efficient conversion of human stem cells to lineage-specific neurons” (THE JOHNS HOPKINS UNIVERSITY, priority 2013, dated 2021):
Entries after “also recorded” stand apart in the source; their conditions may differ.

Tests used:
[1] = tested on: Atoh1-induced DA neurons derived from human iPSCs; format: cell-based; settings: 40 μM and 100 μM for 15 minutes
Experimental: Neuron culture medium was changed to neurobasal medium before treatment. 6-OHDA was freshly prepared in vehicle solution (ascorbic acid (0.15%) in H2O) and quickly added to the neuron culture. Control cells were treated with vehicle solution alone. After 15 min at 37° C., the medium was removed and neurons were gently washed twice with Neurobasal Medium. 200 μl neuron culture medium (Neurobasal Medium with B27 Supplement) was added to each well and further incubated for 24 h. Cytotoxicity induced by 6-OHDA was measured using LDH Cytotoxicity Detection Kit (Roche) following the manufacturer's protocol. The percentage cytotoxicity was calculated using the following equation: Cytotoxicity (%)=(Experiment Value−Low Control)/(High Control−Low Control)×100. (Low control: culture medium; High control: total cell lysate).
6-hydroxydopamine (6-OHDA) is a neurotoxin widely used to induce neurotoxicity both in vivo and in vitro to model DA neuron loss in PD pathogenesis. […] Here, we tested the response of Atoh1-induced DA neurons to 6-OHDA treatment. […] Thus, Atoh1-induced DA neurons derived from human iPSCs are sensitive to 6-OHDA treatment at a concentration that selectively damages primary DA neurons isolated from substantia nigra.

[2] = tested on: primary DA neurons from substantia nigra; settings: 6-OHDA 40 μM; cited from earlier work
Atoh1-induced neurons [3] = assay: Current-clamp recording, negative current injection: hyperpolarization sag and rebound action potentials; format: cell-based, human; settings: ML252 5 μM
Atoh1-induced DA neurons = format: cell-based, human
Atoh1-induced neurons [4] = format: cell-based, human
Atoh1-iPSCs = assay: Dox-inducible Atoh1 expression measured by qRT-PCR; format: cell-based, human; settings: Dox treatment for 2 days
Experimental: Total RNA was extracted using the RNeasy Mini kit (Qiagen). Reverse transcription was performed using MuLV reverse transcriptase (Applied biosystems) and Oligo(dT) primers. qRT-PCR was performed using SYBR Green PCR Master Mix (Applied Biosystems) and IQ5 RT-PCR detection system (Bio-rad). Relative expression of each gene was normalized to the 18S rRNA. To further optimize the Atoh1-mediated differentiation strategy, we asked what is the minimum time of Atoh1 induction for successful neuronal conversion. Equal numbers of Atoh1-iPSCs received different durations of Dox treatment (1 to 5 days), after which cells were replated and allowed to mature in vitro for additional 30 days. […] In contrast, Dox treatment for 2 to 5 days successfully differentiated iPSCs into neurons expressing TUJ1 and MAP2 (FIG. 9). […] To compare the level of neurogenic signaling before and after silencing ectopic Atoh1 expression, we treated Atoh1-iPSCs with Dox for 2 days and then withdrew Dox for 3 days (FIGS. 2J and 2K).

## NCCc1cc(O)c(O)cc1O [6-OHDA, 6-hydroxydopamine]
[1]; LDH after 24 h
  neuron death by LDH Cytotoxicity assay: neuron death was also confirmed
[1]; differentiation day 36, read 24 hours after treatment
  morphological signs of neuron death (cell condensation, neurite fragmentation): caused morphological signs of neuron death
[2]
  DA neuron loss in rat substantia nigra neuron cultures: causes selective DA neuron loss without affecting GABA neurons

## CC[C@H](C(=O)Nc1ccccc1N1CCCC1)c1ccccc1 [ML252]
Atoh1-induced neurons [3]
  effect on hyperpolarization sag and rebound action potentials: dampened; also recorded: blocked

## NC1=N[C@H](O)[C@H]2[C@H]3O[C@]4(O)O[C@@H]([C@@H](O)[C@@]2(N1)[C@@H]4O)[C@]3(O)CO [TTX, tetrodotoxin]
Atoh1-induced DA neurons
  effect on train of evoked action potentials: suppressed; also recorded: completely blocked
  time to recovery of action potentials after TTX washout: 17 min
Atoh1-induced neurons [4]
  effect on sodium current: significantly attenuated

## C[C@H]1c2cccc(O)c2C(=O)C2=C(O)[C@]3(O)C(=O)C(C(N)=O)=C(O)[C@@H](N(C)C)[C@@H]3[C@@H](O)[C@@H]21 [Dox, Doxycycline]
Atoh1-iPSCs
  Atoh1 up-regulation by qRT-PCR versus control: 49 fold

## Nc1ccncc1 [4-AP]
Atoh1-induced neurons [4]; 4-AP 25 μM, together with TTX, voltage-clamp
  effect on potassium current: significantly attenuated
